{"source": "patent US8835466B2", "about": "“Synthesis and uses of pyroglutamic acid derivatives” (Prodimed, S.A., priority 2006, dated 2014)", "key": {"[1]": {"test_system": "Renca cells (renal cell carcinoma)", "test": "Effect of isomers on in vivo tumour growth in mice challenged with Renca cells (Example 7)", "set-up": "species or system Balb/c mice", "details": "for Tumour surface, overall values (Mean) / Tumour surface, overall values (Median) / Tumour volume, overall values (Mean) / Tumour volume, overall values (Median): 260 ng/mouse i.p. days 6, 7, 14", "excerpt": "This assay was made in order to check the effect of each stereoisomer on in vivo tumour growth in mice challenged with Renca cells. Their effect was compared with placebo. The stereoisomers assayed were:\nRenca is a renal cell carcinoma originated in Balb/c mouse strain, and therefore syngeneic in mice with Balb/c genetic background [Melder R J et al., Cancer Immunol. Immunother., 2005, 54:535-547; Felluga B et al., 1969, J. Natl. Cancer Inst. 43:319-333]. Renca is considered a moderate immunogenic tumour and used as suitable model for testing immunointervention approaches [Salup R R, et al., 1992, The Journal of Urology, 147:1120-1123].\nRenca cells (CLS, Eppelheim, Germany) were maintained in vitro by serial passages every 3-4 days. Cultures were performed with RPMI medium medium (RPMI, 10% foetal calf serum, 2 mM L-glutamine, non essential amino acids, 1 mM sodium pyruvate, 20 mM HEPES, 80 μg/mL gentamycin; all of them were purchased from Sigma, St. Louis, Mo., USA) by seeding 5×10^6 cells onto 75 cm^2 culture flasks. Tumour cells collected from 48 hour cultures upon trypsinization (Sigma, St. Louis, Mo., USA) were used as source of Renca cells for the studies described below.\nEach isomer was tested at the dose levels of 260 ng administered on days 6, 7 and 14 after tumour inoculation.\nThe treatments were given by intraperitoneal route (i.p.). The volume inoculated was 0.2 mL/animal. This route was chosen because it is the one described in the original method [Pérez S, et al., 2003, Clinical Cancer Research. 9:5776-5785].\nTumours were established by subcutaneous inoculation in the right hind flank. Mice (Balb/c) were inoculated with 0.2 mL containing 10^5 viable Renca cells. The day of subcutaneous inoculation will be considered Day 0 of the test.\nMice were observed daily and the tumour size recorded twice a week. This was carried out by measuring two perpendicular diameters (L/W) with a calliper. These measures were used to obtain both tumour surface and volume: Tumour surface=L×W(mm^2) Tumour volume=L×W^2×½(mm^3)\n(§1) Results were expressed as single values and/or as the mean±SD or median from each experimental group.\nA case-control study was performed with treated and control mice in order to determine whether differences between isomers and administration of placebo were present. […] The U-test of Mann Withney was chosen for being one of the better known non-parametrical tests, anyway, results for this test are equivalent both to those of Wilcoxon's sum of ranges and Kruskal-Wallis two-groups test.\nDue to the high dispersion of data, outlayers (animals beyond percentile 25 or above percentile 75 for tumour surface at day 25) were excluded of the study."}, "[2]": {"test_system": "ASB XIV cells (pulmonary squamous cell carcinoma)", "test": "Effect of isomers and BLAS on in vivo tumour growth, ASB XIV tumours (Example 8)", "set-up": "species or system Balb/c mice", "details": "for Tumour surface, overall values (Mean) / Tumour surface, overall values (Median) / Tumour volume, overall values (Mean) / Tumour volume, overall values (Median): 260 ng/mouse i.p. days 6, 7 and 14", "excerpt": "This assay was made in order to compare the effect of each stereoisomer on in vivo tumour growth in mice with the effect of the mixture of all of them challenged with ASB XIV tumours. The stereoisomers assayed were the same as in example 7 above plus a mixture of all of them (BLAS). The equipment (when needed), reagents, dose, vehicle and route and volume of administration were the same as in example 7.\nASB XIV is a pulmonary squamous cell carcinoma originated in Balb/c mouse strain, and therefore syngeneic in mice with Balb/c genetic background.\nASB XIV cells (CLS, Eppelheim, Germany) were maintained in vitro by serial passages every 3-4 days. Cultures were performed with RPMI medium medium (RPMI, 10% foetal calf serum, 2 mM L-glutamine, non essential aminoacids, 1 mM sodium pyruvate, 20 mM HEPES, 80 μg/mL gentamycin; all of them were purchased from Sigma, St. Louis, Mo., USA) by seeding 5×10^6 cells onto 75 cm^2 culture flasks. Tumour cells collected from 48 hour cultures upon trypsinization (Sigma, St. Louis, Mo., USA) were used as source of ASB XIV cells in the present example.\n• BLAS (mixture of isomers 1, 2, 3 and 4) at a concentration of 65 μg/mL in sterile physiological saline. Isomer 1 (9b) at a concentration of 65 μg/mL in sterile physiological saline. • Isomer 2 (9c) at a concentration of 65 μg/mL in sterile physiological saline. • Isomer 3 (9a) at a concentration of 65 μg/mL in sterile physiological saline. • Isomer 4 (9d) at a concentration of 65 μg/mL in sterile physiological saline. Placebo\nTumours were established by subcutaneous inoculation in the right hind flank. Mice (Balb/c) were inoculated with 0.2 mL containing 2×10^5 viable ASB XIV cells. The day of subcutaneous inoculation will be considered Day 0 of the test.\nMice were observed daily and the tumour size recorded twice a week. This was carried out by measuring two perpendicular diameters (d1/d2) with a calliper. These measures were used to obtain both tumour surface and volume: Tumour surface=d1×d2(mm^2) Tumour volume=d1×d2^2×½(mm^3)\nas §1\nA case-control study was performed with treated and control mice in order to determine whether differences between BLAS or each diferent stereoisomer and administration of placebo were present. […] The U-test of Mann Withney was chosen for being one of the better known non-parametrical tests, anyway, results for this test are equivalent both to those of Wilcoxon's sum of ranges and Kruskal-Wallis two-groups test.\nDue to the high dispersion of data, outlayers (animals beyond percentile 10 or above percentile 90 for tumour surface at day 33) were excluded of the study."}, "[3]": {"details": "day 11 after tumour inoculation"}, "[4]": {"details": "day 14 after tumour inoculation"}, "[5]": {"details": "day 12 after tumour inoculation"}, "[6]": {"details": "day 15 after tumour inoculation"}, "[7]": {"details": "day 19 after tumour inoculation"}, "[8]": {"details": "day 22 after tumour inoculation"}, "[9]": {"details": "day 26 after tumour inoculation"}, "[10]": {"details": "day 29 after tumour inoculation"}, "[11]": {"details": "day 33 after tumour inoculation"}}, "data": [{"smiles": "Br.N[C@]1(C[n+]2ccccc2)C[C@H](C(=O)O)NC1=O.[Br-]", "note": "(single isomer, unassigned; isomer 4) [isomer 4, 3S,5R-1-(3-Amino-5-carboxy-2-oxopyrrolidin-3-ylmethyl)pyridinium bromide hidrobromide]", "values": [{"measurement": "Inhibition of the in vivo growth of the renal cell carcinoma (Renca), in words", "setting": "[1]; 260 ng i.p. days 6, 7, 14", "result": "inhibit the in vivo growth"}, {"measurement": "Inhibitory effect on Renca tumour growth compared among isomers, in words", "setting": "[1]; 260 ng i.p. days 6, 7, 14", "result": "highest inhibitory effect"}, {"measurement": "Tumour surface, overall values (Mean)", "setting": "[1]; day 0 after tumour inoculation", "result": 0, "unit": "mm^2"}, {"measurement": "Tumour surface, overall values (Median)", "setting": "[1]; day 0 after tumour inoculation", "result": 0, "unit": "mm^2"}, {"measurement": "Tumour volume, overall values (Mean)", "setting": "[1]; day 0 after tumour inoculation", "result": 0, "unit": "mm^3"}, {"measurement": "Tumour volume, overall values (Median)", "setting": "[1]; day 0 after tumour inoculation", "result": 0, "unit": "mm^3"}, {"measurement": "Tumour surface, overall values (Mean)", "setting": "[1]; [3]", "result": 0, "unit": "mm^2"}, {"measurement": "Tumour surface, overall values (Median)", "setting": "[1]; [3]", "result": 0, "unit": "mm^2"}, {"measurement": "Tumour volume, overall values (Mean)", "setting": "[1]; [3]", "result": 0, "unit": "mm^3"}, {"measurement": "Tumour volume, overall values (Median)", "setting": "[1]; [3]", "result": 0, "unit": "mm^3"}, {"measurement": "Tumour surface, overall values (Median)", "setting": "[1]; [4]", "result": 0, "unit": "mm^2"}, {"measurement": "Tumour volume, overall values (Median)", "setting": "[1]; [4]", "result": 0, "unit": "mm^3"}, {"measurement": "Tumour surface, overall values (Median)", "setting": "[1]; day 18 after tumour inoculation", "result": 9, "unit": "mm^2"}, {"measurement": "Differences in Renca tumour growth rate vs. placebo, statistical significance p (Mann-Whitney U test)", "setting": "[1]; either in surface or volume, all days scored after the day 14th", "result": "< 0.01"}, {"measurement": "Inhibition of the in vivo growth of the lung carcinoma ASB XIV, in words", "setting": "[2]; 260 ng i.p. days 6, 7 and 14", "result": "inhibit the in vivo growth"}, {"measurement": "Tumour surface, overall values (Mean)", "setting": "[2]; day 0 after tumour inoculation", "result": 0, "unit": "mm^2"}, {"measurement": "Tumour surface, overall values (Median)", "setting": "[2]; day 0 after tumour inoculation", "result": 0, "unit": "mm^2"}, {"measurement": "Tumour volume, overall values (Mean)", "setting": "[2]; day 0 after tumour inoculation", "result": 0, "unit": "mm^3"}, {"measurement": "Tumour volume, overall values (Median)", "setting": "[2]; day 0 after tumour inoculation", "result": 0, "unit": "mm^3"}, {"measurement": "Tumour surface, overall values (Mean)", "setting": "[2]; day 8 after tumour inoculation", "result": 0, "unit": "mm^2"}, {"measurement": "Tumour surface, overall values (Median)", "setting": "[2]; day 8 after tumour inoculation", "result": 0, "unit": "mm^2"}, {"measurement": "Tumour volume, overall values (Mean)", "setting": "[2]; day 8 after tumour inoculation", "result": 0, "unit": "mm^3"}, {"measurement": "Tumour volume, overall values (Median)", "setting": "[2]; day 8 after tumour inoculation", "result": 0, "unit": "mm^3"}, {"measurement": "Tumour surface, overall values (Mean)", "setting": "[2]; [5]", "result": 0.17, "unit": "mm^2"}, {"measurement": "Tumour surface, overall values (Median)", "setting": "[2]; [5]", "result": 0, "unit": "mm^2"}, {"measurement": "Tumour volume, overall values (Mean)", "setting": "[2]; [5]", "result": 0.16, "unit": "mm^3"}, {"measurement": "Tumour volume, overall values (Median)", "setting": "[2]; [5]", "result": 0, "unit": "mm^3"}, {"measurement": "Tumour surface, overall values (Mean)", "setting": "[2]; [6]", "result": 2.79, "unit": "mm^2"}, {"measurement": "Tumour surface, overall values (Median)", "setting": "[2]; [6]", "result": 0, "unit": "mm^2"}, {"measurement": "Tumour volume, overall values (Mean)", "setting": "[2]; [6]", "result": 5.29, "unit": "mm^3"}, {"measurement": "Tumour volume, overall values (Median)", "setting": "[2]; [6]", "result": 0, "unit": "mm^3"}, {"measurement": "Tumour surface, overall values (Mean)", "setting": "[2]; [7]", "result": 14.59, "unit": "mm^2"}, {"measurement": "Tumour surface, overall values (Median)", "setting": "[2]; [7]", "result": 9, "unit": "mm^2"}, {"measurement": "Tumour volume, overall values (Mean)", "setting": "[2]; [7]", "result": 36.5, "unit": "mm^3"}, {"measurement": "Tumour surface, overall values (Mean)", "setting": "[2]; [8]", "result": 34.52, "unit": "mm^2"}, {"measurement": "Tumour volume, overall values (Mean)", "setting": "[2]; [8]", "result": 118.19, "unit": "mm^3"}, {"measurement": "Tumour surface, overall values (Mean)", "setting": "[2]; [9]", "result": 65.86, "unit": "mm^2"}, {"measurement": "Tumour surface, overall values (Median)", "setting": "[2]; [9]", "result": 49, "unit": "mm^2"}, {"measurement": "Tumour volume, overall values (Mean)", "setting": "[2]; [9]", "result": 297.83, "unit": "mm^3"}, {"measurement": "Tumour volume, overall values (Median)", "setting": "[2]; [9]", "result": 171.5, "unit": "mm^3"}, {"measurement": "Tumour surface, overall values (Mean)", "setting": "[2]; [10]", "result": 90.28, "unit": "mm^2"}, {"measurement": "Tumour surface, overall values (Median)", "setting": "[2]; [10]", "result": 81, "unit": "mm^2"}, {"measurement": "Tumour volume, overall values (Mean)", "setting": "[2]; [10]", "result": 451.55, "unit": "mm^3"}, {"measurement": "Tumour volume, overall values (Median)", "setting": "[2]; [10]", "result": 364.5, "unit": "mm^3"}, {"measurement": "Tumour surface, overall values (Mean)", "setting": "[2]; [11]", "result": 123.45, "unit": "mm^2"}, {"measurement": "Tumour surface, overall values (Median)", "setting": "[2]; [11]", "result": 110, "unit": "mm^2"}, {"measurement": "Tumour volume, overall values (Mean)", "setting": "[2]; [11]", "result": 700.66, "unit": "mm^3"}, {"measurement": "Tumour volume, overall values (Median)", "setting": "[2]; [11]", "result": 550, "unit": "mm^3"}, {"measurement": "Differences in ASB XIV tumour growth rate vs. placebo, statistical significance p (Mann-Whitney U test)", "setting": "[2]; either in surface or volume, all days scored after the day 26th", "result": "< 0.05"}]}]}
